The results in this text go back to article PMC5651055, “Effects of Resveratrol on the Structure and Catalytic Function of Bovine Liver catalase (BLC): Spectroscopic and Theoretical Studies” (Advanced Pharmaceutical Bulletin, 2017).

pIC50: −log10 of the molar value.

The experiment has as its target T1, Bovine liver catalase (BLC) (Bos taurus, UniProt P00432).
T1 construct: gene CAT; native homotetramer from bovine liver (Sigma-Aldrich)
T1 sequence (P00432 2-527): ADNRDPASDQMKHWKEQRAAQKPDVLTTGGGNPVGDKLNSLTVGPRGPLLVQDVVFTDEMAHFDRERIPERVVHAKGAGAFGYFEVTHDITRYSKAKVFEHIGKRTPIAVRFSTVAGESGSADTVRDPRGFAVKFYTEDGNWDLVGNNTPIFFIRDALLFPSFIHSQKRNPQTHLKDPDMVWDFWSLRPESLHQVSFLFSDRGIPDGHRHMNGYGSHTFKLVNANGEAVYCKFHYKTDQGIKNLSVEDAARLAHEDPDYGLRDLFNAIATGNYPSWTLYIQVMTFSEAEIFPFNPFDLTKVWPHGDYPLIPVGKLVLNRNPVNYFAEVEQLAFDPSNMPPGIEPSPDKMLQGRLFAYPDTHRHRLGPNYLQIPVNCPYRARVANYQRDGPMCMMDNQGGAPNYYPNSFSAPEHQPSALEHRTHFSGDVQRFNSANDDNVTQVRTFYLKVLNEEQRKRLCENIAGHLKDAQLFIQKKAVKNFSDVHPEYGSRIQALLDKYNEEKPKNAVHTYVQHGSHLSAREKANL
The experiment can be described thus: H2O2 decomposition at A240 with purified BLC; supported by fluorescence quenching (K =[…] ^-1 at […] °C, n = […]). In kind it is biochemical.

In the case of `Oc1ccc(/C=C/c2cc(O)cc(O)c2)cc1` [tRES, trans resveratrol], the pIC50 (in general, the negative decadic logarithm of the IC50, by convention in mol/L) was 5.09.
